Source: article PMC9181987, “Disclosing the Potential of Fluorinated Ionic Liquids as Interferon-Alpha 2b Delivery Systems” (Nanomaterials, 2022)
Values joined by “and” are separate entries in the source; they are usually repeats but may differ in a detail not shown here. Identical values can stand only once.

Legend:
[1] = Conductivity titration: critical aggregation concentrations, ionization degree, Gibbs free energy of aggregation; format: physicochemical; design: First CAC (wFIL) / Third CAC (wFIL): unit not given here; conditions: 25°C
Procedure: For this purpose, a CDM210 conductometer (Radiometer Analytical, Lyon, France) and a CDC749 electrode (Radiometer Analytical, Lyon, France) were utilized. The electrode was calibrated at 25 °C using two standard solutions of 0.1 and 0.01 D KCl (Radiometer Analytical). The standard solutions and samples were measured inside of a glass cell in a thermostated bath at 25 °C with constant magnetic stirring. […] Each sample was then placed on the cell, stirred, and had its ionic conductivity measured. […] This experimental procedure was carried out until the ionic conductivity reached a plateau. […] The ionic conductivity was measured at least three times before adding more solution and the uncertainty of each measurement was estimated to be less than 1%.
A thorough analysis of the conductivity profile was advanced by applying the Phillips definition, which studies the change of the slopes of the conductivity curve along with the variation in FIL concentration.
From the parameter α, the degree of counterion binding, β, can be calculated. This parameter is associated with the charge density at the surface, the size, and the hydrophobic nature of the aggregate. It is given by the following equation:β = 1 − α(1)
Another parameter was considered in this study related to the spontaneity of a surfactant to aggregate, given by the standard Gibbs free energy of aggregation, ΔGagg0 . This parameter is provided by the pseudophase model of micellization, using the equation:(2) ΔGagg0=RT(1+β)lnxCAC where R is the universal gas constant, T is the absolute temperature and xCAC corresponds to the value of CAC in molar fraction. As long as this parameter is more negative, this means that the process of aggregation in the specific CACs is more spontaneous.

[2] = Contact angle goniometry breakpoints; format: physicochemical; conditions: 25°C
Procedure: The force tensiometer is equipped with a platinum Du Noüy ring to surface tension measurement and a thermostatic vessel connected to a bath circulator (RW-0535G, Lab. Companion, Daejeon, Republic of Korea) in order to keep the temperature of the solution constant. Next, 15 mL of each sample was placed in a glass container and left to equilibrate in the thermostatic vessel. After temperature equilibration, the surface tension was measured. The equipment is a standalone-controlled instrument, and the calibration was conducted with a calibration weight with a known mass before measuring the samples. Each sample was measured five times, and the reported surface tension was the average value with an uncertainty of ±0.22 mN/m. Each solution was then assessed by a KSV’s contact angle goniometer CAM100 (Biolin Scientific, Gothenburg, Sweden). A drop of each solution was placed on a Teflon surface with a Hamilton syringe. This equipment is a PC-controlled instrument, and the tilt was set to 0 degrees at the base of the drop and was recorded for 10 frames with an interval of 1 s. The contact angle was calculated for the left and right sides of the drop and the mean value was the resulting contact angle. At least five different drops of each solution were recorded, and the reported contact angle was the resulting average with an uncertainty of ±5%.

[3] = design: method as in doi:10.5772/INTECHOPEN.96336, doi:10.1016/j.molliq.2022.119285, PMID 25580898; conditions: cited from earlier work
[4] = 10 μg/mL IFN-α 2b + 5 mM NaH2PO4 (pH=7.4)
[5] = 5 μg/mL IFN-α 2b + 5 mM NaH2PO4 (pH=7.4), 1st breakpoint
[6] = 5 μg/mL IFN-α 2b + 5 mM NaH2PO4 (pH=7.4), 2nd breakpoint
[7] = 5 μg/mL IFN-α 2b + 5 mM NaH2PO4 (pH=7.4), 3rd breakpoint
[8] = 5 μg/mL IFN-α 2b + 5 mM NaH2PO4 (pH=7.4), 4th breakpoint

Compound: CCn1cc[n+](C)c1.O=S(=O)([O-])C(F)(F)C(F)(F)C(F)(F)C(F)(F)F [[C2C1Im][C4F9SO3], 1-Ethyl-3-methylimidazolium perfluorobutanesulfonate]
- First CAC [1, 4]: 15.19 mmol/kg
- First CAC (wFIL) [1, 4]: 0.0062
- Gibbs free energy of aggregation ΔG0agg, First CAC [1, 4]: -5.5 kcal/mol
- Gibbs free energy of aggregation ΔG0agg, Second CAC [1, 4]: -4.85 kcal/mol
- Gibbs free energy of aggregation ΔG0agg, Third CAC [1, 4]: -5.69 kcal/mol
- Second CAC [1, 4]: 43.57 mmol/kg
- Second CAC (wFIL) [1, 4]: 0.0179
- Third CAC [1, 4]: 83.44 mmol/kg
- Third CAC (wFIL) [1, 4]: 0.0342
- ionization degree α, First CAC [1, 4]: 0.87
- ionization degree α, Second CAC [1, 4]: 0.85
- ionization degree α, Third CAC [1, 4]: 0.52
- First CAC ([1]; 5 mM NaH2PO4 (pH=7.4)): 13.75 mmol/kg
- First CAC (wFIL) ([1]; 5 mM NaH2PO4 (pH=7.4)): 0.0056
- Gibbs free energy of aggregation ΔG0agg, First CAC ([1]; 5 mM NaH2PO4 (pH=7.4)): -5.66 kcal/mol
- Gibbs free energy of aggregation ΔG0agg, Second CAC ([1]; 5 mM NaH2PO4 (pH=7.4)): -4.83 kcal/mol
- Gibbs free energy of aggregation ΔG0agg, Third CAC ([1]; 5 mM NaH2PO4 (pH=7.4)): -6.36 kcal/mol
- Second CAC ([1]; 5 mM NaH2PO4 (pH=7.4)): 46.13 mmol/kg
- Second CAC (wFIL) ([1]; 5 mM NaH2PO4 (pH=7.4)): 0.0189
- Third CAC ([1]; 5 mM NaH2PO4 (pH=7.4)): 83.13 mmol/kg and 80.35 mmol/kg
- Third CAC (wFIL) ([1]; 5 mM NaH2PO4 (pH=7.4)): 0.0341
- ionization degree α, First CAC ([1]; 5 mM NaH2PO4 (pH=7.4)): 0.85
- ionization degree α, Second CAC ([1]; 5 mM NaH2PO4 (pH=7.4)): 0.85
- ionization degree α, Third CAC ([1]; 5 mM NaH2PO4 (pH=7.4)): 0.34
- First CAC ([1]; 25 mM KH2PO4 (pH=6.8)): 1.99 mmol/kg
- First CAC (wFIL) ([1]; 25 mM KH2PO4 (pH=6.8)): 0.0008
- Gibbs free energy of aggregation ΔG0agg, First CAC ([1]; 25 mM KH2PO4 (pH=6.8)): -10.7 kcal/mol
- Gibbs free energy of aggregation ΔG0agg, Second CAC ([1]; 25 mM KH2PO4 (pH=6.8)): -5.76 kcal/mol
- Gibbs free energy of aggregation ΔG0agg, Third CAC ([1]; 25 mM KH2PO4 (pH=6.8)): -7.15 kcal/mol
- Second CAC ([1]; 25 mM KH2PO4 (pH=6.8)): 38.64 mmol/kg
- Second CAC (wFIL) ([1]; 25 mM KH2PO4 (pH=6.8)): 0.0158
- Third CAC ([1]; 25 mM KH2PO4 (pH=6.8)): 71.45 mmol/kg
- Third CAC (wFIL) ([1]; 25 mM KH2PO4 (pH=6.8)): 0.0293
- ionization degree α, First CAC ([1]; 25 mM KH2PO4 (pH=6.8)): 0.24
- ionization degree α, Second CAC ([1]; 25 mM KH2PO4 (pH=6.8)): 0.66
- ionization degree α, Third CAC ([1]; 25 mM KH2PO4 (pH=6.8)): 0.18
- First CAC ([1]; 100 mM HCl (pH=1.2)): 4.65 mmol/kg
- First CAC (wFIL) ([1]; 100 mM HCl (pH=1.2)): 0.0019
- Gibbs free energy of aggregation ΔG0agg, First CAC ([1]; 100 mM HCl (pH=1.2)): -11.1 kcal/mol
- ionization degree α, First CAC ([1]; 100 mM HCl (pH=1.2)): 0.003
- First CAC ([1]; 150 mM NaCl (pH=7.3)): 3.51 mmol/kg
- First CAC (wFIL) ([1]; 150 mM NaCl (pH=7.3)): 0.0014
- Gibbs free energy of aggregation ΔG0agg, First CAC ([1]; 150 mM NaCl (pH=7.3)): -10.7 kcal/mol
- Gibbs free energy of aggregation ΔG0agg, Second CAC ([1]; 150 mM NaCl (pH=7.3)): -5.47 kcal/mol
- Gibbs free energy of aggregation ΔG0agg, Third CAC ([1]; 150 mM NaCl (pH=7.3)): -7 kcal/mol
- Second CAC ([1]; 150 mM NaCl (pH=7.3)): 33.69 mmol/kg
- Second CAC (wFIL) ([1]; 150 mM NaCl (pH=7.3)): 0.0138
- Third CAC ([1]; 150 mM NaCl (pH=7.3)): 83.46 mmol/kg
- Third CAC (wFIL) ([1]; 150 mM NaCl (pH=7.3)): 0.0342
- ionization degree α, First CAC ([1]; 150 mM NaCl (pH=7.3)): 0.14
- ionization degree α, Second CAC ([1]; 150 mM NaCl (pH=7.3)): 0.75
- ionization degree α, Third CAC ([1]; 150 mM NaCl (pH=7.3)): 0.17
- First CAC ([1]; 150 mM NaH2PO4 (pH=7.4)): 14.57 mmol/kg
- First CAC (wFIL) ([1]; 150 mM NaH2PO4 (pH=7.4)): 0.0060
- Gibbs free energy of aggregation ΔG0agg, First CAC ([1]; 150 mM NaH2PO4 (pH=7.4)): -5.59 kcal/mol
- Gibbs free energy of aggregation ΔG0agg, Second CAC ([1]; 150 mM NaH2PO4 (pH=7.4)): -5.16 kcal/mol
- Gibbs free energy of aggregation ΔG0agg, Third CAC ([1]; 150 mM NaH2PO4 (pH=7.4)): -7.05 kcal/mol
- Second CAC ([1]; 150 mM NaH2PO4 (pH=7.4)): 32.93 mmol/kg
- Second CAC (wFIL) ([1]; 150 mM NaH2PO4 (pH=7.4)): 0.0135
- Third CAC ([1]; 150 mM NaH2PO4 (pH=7.4)): 68.76 mmol/kg
- Third CAC (wFIL) ([1]; 150 mM NaH2PO4 (pH=7.4)): 0.0282
- ionization degree α, First CAC ([1]; 150 mM NaH2PO4 (pH=7.4)): 0.85
- ionization degree α, Second CAC ([1]; 150 mM NaH2PO4 (pH=7.4)): 0.82
- ionization degree α, Third CAC ([1]; 150 mM NaH2PO4 (pH=7.4)): 0.21
- CAC (wFIL), goniometer [2, 5]: 0.0009
- CAC, goniometer [2, 5]: 2.101 mmol⸱kg-1
- CAC (wFIL), goniometer [2, 6]: 0.0030
- CAC, goniometer [2, 6]: 7.288 mmol⸱kg-1
- CAC (wFIL), goniometer [2, 7]: 0.0157
- CAC, goniometer [2, 7]: 38.18 mmol⸱kg-1
- CAC (wFIL), goniometer [2, 8]: 0.0430
- CAC, goniometer [2, 8]: 104.7 mmol⸱kg-1
- CAC (wFIL), goniometer ([2]; 5 mM NaH2PO4 (pH=7.4)): 0.0329
- CAC, goniometer ([2]; 5 mM NaH2PO4 (pH=7.4)): 80.27 mmol⸱kg-1
- miscibility in water [3]: full miscibility in water
